Measurements reported in paper PMC11134608, “UBR5 forms ligand-dependent complexes on chromatin to regulate nuclear hormone receptor stability” (Molecular cell, 2023).

Experiments:
[1] = system: RARA and RXRA protein levels in NB4 cells; assay: Whole-proteome mass spectrometry of NB4 cells; format: cell-based, human; details: ATRA 24 h, n = 3 per condition
Experimental: Cells were lysed by addition of lysis buffer (8 M Urea, 50 mM NaCl, 50 mM 4-(2-hydroxyethyl)-1-piperazineethanesulfonic acid (EPPS) pH 8.5, Protease and Phosphatase inhibitors) and homogenization by bead beating (BioSpec) for three repeats of 30 seconds at 2400. Bradford assay was used to determine the final protein concentration in the clarified cell lysate. […] Desalted peptides were dried in a vacuum-centrifuged and reconstituted in 0.1% formic acid for LC-MS analysis.
Data were collected using a TimsTOF Pro2 (Bruker Daltonics, Bremen, Germany) coupled to a nanoElute LC pump (Bruker Daltonics, Bremen, Germany) via a CaptiveSpray nano-electrospray source.
The ddaPASEF parameters included: 100% duty cycle using accumulation and ramp times of 50 ms each, 1 TIMS-MS scan and 10 PASEF ramps per acquisition cycle. […] The quadrupole isolation width was set to 2 m/z for m/z <700 and 3 m/z for m/z >800, with the m/z between 700–800 m/z being interpolated linearly. […] To perform diaPASEF, the precursor distribution in the DDA m/z-ion mobility plane was used to design an acquisition scheme for DIA data collection which included two windows in each 50 ms diaPASEF scan. […]

RARA and PML-RARA = assay: Western blotting of RARA / PML-RARA degradation in NB4 cells; format: cell-based, human
Experimental: Membranes were blocked for 30 minutes to 1 hour at room temperature in Odyssey Blocking Buffer/PBS (LI-COR Biosciences), and incubated with primary antibodies at 4 °C overnight. Stained membranes were washed three times in Tris-buffered saline with Tween 20 (TBS-T) and incubated for 1 hour at room temperature with secondary IRDye-conjugated antibodies (LI-COR Biosciences). Membranes were washed three times in TBS-T before imaging (Odyssey Imaging System, LI-COR Biosciences).

NB4 cells = assay: NB4 viability (relative cell counts); format: cell-based, human; details: shUBR5 vs shCTRL, n = 4
Experimental: (D) Western blotting of NB4 cells transduced with shRNAs against luciferase (shCTRL) or UBR5 treated with or without ATRA. (E) Viability by relative cell counts of NB4 cells transduced with control or UBR5 shRNAs (two shRNAs per condition, combined) following treatment with 1 μM ATRA for 24 h. (n = 4, two-sided t test). […] (NS, not significant, *p < 0.05, **p < 0.005, ***p < 0.0005, ****p < 0.00005, error bars represent SEM.)
All flow cytometry-based assays (degradation and viability assays) were run in triplicate (n=3) unless otherwise specified where n represents a distinct flow cytometric specimen (a well or tube containing ~100,000 cells). P-values were calculated using GraphPad Prism two-sided t-test and are centered around the mean and error bars represent the SEM unless otherwise specified.
K. NB4 cell viability following
transduction of shRNAs againstluciferase or UBR5 and ATRA treatment for 3 days.Data from two shRNAs are combined.(n=4, two sided t-test)NS,not significant, *p < 0.05, **p <0.005, ***p<

UBR5-RARA = assay: In vitro FLAG-UBR5 pull-down of His-tagged RARA; format: binding, human; details: 50 μM ligand, anti-His western, 25 mM HEPES pH 7.4, 125 mM NaCl, 0.05% TWEEN-20
Experimental: 12 μL of FLAG M2 slurry were equilibrated with binding buffer (25 mM HEPES pH 7.4, 125 mM NaCl, 0.05% TWEEN-20). The resin was pelleted and excess buffer removed. 60 μL of fresh binding buffer was re-added, followed by addition of 15 pmol (2.5 μL ofa6 μM solution) of purified FLAG-UBR5 protein and incubated on a rotating wheel at 4°C for 60–90 minutes. The resin was pelleted, excess buffer removed, and 150 μL fresh binding buffer (supplemented with 50 μM ligand of interest or DMSO) added, followed by 150 pmol protein (binding partner protein of interest) and incubated for another 60 minutes. The resin was pelleted, excess buffer removed and washed with 400 μL of binding buffer (supplemented with ligand of interest or DMSO), and this process was repeated three times. The resin was pelleted, excess buffer removed and 45 μL of binding buffer supplemented with 1 mg/mL 3xFLAG peptide was added to elute proteins over 30 minutes on a rotating wheel at room temperature. The resin was pelleted, and 40 μL of the supernatant was collected and mixed with 12 μL of 5xSDS gel loading buffer. 6 μL of these samples were applied to SDS-PAGE on a 4–20% gradient gel (Biorad). The gel was transferred to a nitrocellulose membrane using the Trans-Blot Turbo Transfer System (Biorad). Following blocking with 5% skim milk solution in TBST, primary antibodies targeting the NR proteins were added in TBST and incubated overnight at 4 °C. The following day, membranes were washed thrice with TBST buffer and incubated for 45 minutes with fluorescent secondary antibody (Invitrogen A11357), followed by three more washes with TBST. Imaging was performed on a Licor Odyssey system, scanned at 800 nm.

UBR5-RARA/RXRA [2] = assay: In vitro FLAG-UBR5 pull-down of His-tagged RARA/RXRA heterodimer; format: binding, human; details: 50 μM ATRA, mutant proteins
Experimental: The resin was pelleted and excess buffer removed. 60 μL of fresh binding buffer was re-added, followed by addition of 15 pmol (2.5 μL ofa6 μM solution) of purified FLAG-UBR5 protein and incubated on a rotating wheel at 4°C for 60–90 minutes. The resin was pelleted, excess buffer removed, and 150 μL fresh binding buffer (supplemented with 50 μM ligand of interest or DMSO) added, followed by 150 pmol protein (binding partner protein of interest) and incubated for another 60 minutes. The resin was pelleted, excess buffer removed and washed with 400 μL of binding buffer (supplemented with ligand of interest or DMSO), and this process was repeated three times. The resin was pelleted, excess buffer removed and 45 μL of binding buffer supplemented with 1 mg/mL 3xFLAG peptide was added to elute proteins over 30 minutes on a rotating wheel at room temperature. The resin was pelleted, and 40 μL of the supernatant was collected and mixed with 12 μL of 5xSDS gel loading buffer. 6 μL of these samples were applied to SDS-PAGE on a 4–20% gradient gel (Biorad). The gel was transferred to a nitrocellulose membrane using the Trans-Blot Turbo Transfer System (Biorad). Following blocking with 5% skim milk solution in TBST, primary antibodies targeting the NR proteins were added in TBST and incubated overnight at 4 °C. […]

RARA reporter = RARA reporter degradation (GFP/mCherry); format: cell-based, human
Experimental: (§1) Reporter cell lines were seeded in triplicate at a density of 1 million cells/ml in 100 μl per well in a 96 well plate and measured once. Ligand was added by Digital Dispenser (Tecan), and incubated at 37°C for the appropriate time before reading by flow cytometry. Cells were analyzed for GFP vs mCherry expression. GFP expression was normalized to mCherry signal and ligand treatments were compared to DMSO controls.

PML-RARA-GFP reporter = PML-RARA-GFP reporter degradation; format: cell-based, human; details: equivalent single-residue glutamate substitutions
Experimental: as §1

[3] = system: RARA complexes (NCOR, NCOA, UBR5); assay: RARA-GFP immunoprecipitation (IP-MS and IP-western); format: cell-based, human
Experimental: To examine the temporal dynamics of this competition in cells, we performed sequential RARA immunoprecipitation/mass spectrometry (IP/MS) in the presence of MG132 at 0, 4, and 16 h following ATRA treatment.
Reporter cells (up to 100 million) were treated with ligand (ATRA, dexamethasone) and allowed to incubate for different time points. […] Lysates were incubated with GFP-Trap Magnetic Agarose beads (ChromoTek, GTMA-20) overnight at 4°C on a rotator. Beads were magnetically removed and washed three times with Pierce IP Lysis Buffer with ligand added before boiling in 1x NuPAGE LDS Sample Buffer (ThermoFischer, NP0007).
After the washing step, samples were eluted using Glycine-HCl buffer (0.2 M, pH 2.4) and rebuffered to pH 8.0. The IP eluates were reduced with 10 mM TCEP for 30 min at room temperature, and then alkylated with 15 mM iodoacetamide for 45 min at room temperature in the dark. Alkylation was quenched by the addition of 10 mM DTT. Proteins were isolated by methanol-chloroform precipitation. The protein pellets were dried and then resuspended in 50 μL 200 mM EPPS pH 8.0. The resuspended protein samples were digested with 2 μg LysC overnight at room temperature followed by the addition of 0.5 μg Trypsin for 6 h at 37°C. Protein digests were dried, resuspended in 100 μL 1% formic acid, and desalted using 10-layer C18 stage-tips before being analyzed by LC-MS.

[4] = system: RARA and UBR5 on chromatin in NB4 cells; assay: ChIP-seq of RARA and UBR5 in NB4 cells; format: cell-based, human; details: NB4, ATRA 8 and 24 h vs DMSO
Experimental: Cell lines were expanded (up to 50 million), treated with ligand, and incubated at 37 °C. Cells were pelleted by centrifugation for 5 minutes, washed twice with cold PBS, and resuspended, in 5 ml of room temperature PBS. 20 μl of 0.5M Disuccinimidyl glutarate (DSG) (ThermoFisher), was added and incubated for 30 minutes at room temperature. Cells were pelleted by centrifugation and resuspended in 8.325 ml of PBS and 8.325 ml of 2% formaldehyde and incubated for 30 minutes at room temperature. Cross-linking was quenched by the addition of 1665 μl of 1 M Tris-HCl pH 8.0 and 832.5 μl of 2.5 M glycine. Cells were pelleted and washed twice with PBS. Cross-linked cells were resuspended in LB1 Buffer (50mM HEPES-KOH, pH7.5, 140mM NaCl, 1mM EDTA, 10% Glycerol, 0.5% NP-40, 0.25% Triton X-100 in distilled water) and rotated for 10 minutes at 4C. Cells were pelleted and resuspended in LB2 (10mM Tris-HCl, pH 8.0, 200mM NaCl, 1mM EDTA, 0.5mM EGTA in distilled water) and rotated for 10 minutes at 4C. Cells were pelleted and resuspended in LB3 (10mM Tris-HCL, pH 8.0, 100mM NaCl, 1mM EDTA, 0.5mM EGTA, 0.1% Na-deoxycholate, 0.5% Na-Lauroylsarcosine, 1% Triton X-100, in distilled water) sonicated (Covaris, E220). […] Fragment length and concentrations were assessed using TapeStation (Agilent) and Qubit (ThermoFisher), and libraries were sequenced on an Illumina NextSeq 550 sequencer. […]

[5] = system: ATRA-induced gene expression in NB4 cells; assay: RNA sequencing of NB4 cells; format: cell-based, human; details: NB4, ATRA 0, 8, 24, 48 h
Experimental: Cell lines were expanded, treated with ligand, and incubated at 37C. Cells were pelleted by centrifugation for 5 minutes, washed with cold PBS, and RNA was isolated by RNeasy kit (Qiagen) per manufacturer’s instructions. RNA was sent to Novogene for library preparation and sequencing, or prepared for sequencing (NEBNext, New England Biolabs) and sequenced on an Illumina NextSeq 550 sequencer.
Paired-end reads were aligned to the hg38.p13[81],[82] reference genome with the STAR[83] (v5.2.7b) aligner as part of the RSEM[99] command line tool. Gene transcript abundance was further quantified from aligned fragments using RSEM to generate a gene-by-sample matrix of expected counts. Differential expression was tested, as with the ChIP-seq data, using the DESeq[88],[93]2 and ashr[94] pipeline, this time calculating sample-specific scale factor offset using the method of median-ratio as implemented in the R package EBSeq[100] (v1.36.0). For plotting in heatmaps, genes were selected based on ChIP-seq peak annotation and subset.

UBR5-RARA/RXRA [6] = assay: RARE dsDNA incorporation into UBR5-RARA/RXRA complex; format: binding, human
Experimental: A.Western blot (anti-His)showingin vitroFLAG-UBR5 pulldownofpurified His-tagged RARA/RXRA heterodimer, showing thata fluorescein-labelled 24-merdsDNAcontaining a DR5 Retinoic Acid
Immediately before preparing samples for SDS-PAGE, fluorescence
counts were measured at 488 nm to assessdsDNAincorporation. Fluorescence counts were normalized to the –dsDNA, DMSO condition as abaseline.

PML-RARA = system: PML-RARA; parameters: method as in PMID 10611294, PMID 20378816; details: ATRA targets RARA, ATO targets PML, ref [6],[11]; cited from earlier work

CC1=C(/C=C/C(C)=C/C=C/C(C)=C/C(=O)O)C(C)(C)CCC1 [ATRA, all-trans-retinoic acid]
protein levels of RARA and RXRA [1]: significantly and selectively decreased
RARA and PML-RARA degradation, proteasome / neddylation dependence (RARA and PML-RARA; 10 µM ATRA with MG132 or MLN4924): dependent on the proteasome, but not neddylation
effect of UBR5 knockdown on PML-RARA degradation (RARA and PML-RARA; UBR5 shRNA): prevented ATRA-induced degradation of PML-RARA in NB4 cells
effect of UBR5 knockdown on RARA degradation (RARA and PML-RARA; UBR5 shRNA vs control shRNA): rescued ATRA-induced RARA degradation
ATRA sensitivity upon UBR5 knockdown (NB4 cells): decreased ATRA sensitivity in NB4 cells
binding of RARA to UBR5 (UBR5-RARA): robustly induced binding of RARA to UBR5
agonist-induced binding of RARA V240E / RXRA V280E to UBR5 (UBR5-RARA/RXRA [2]): abolished agonist-induced binding to UBR5 in vitro
requirement of UBR5 HECT domain for RARA reporter degradation (RARA reporter; HEK293, CRISPR-edited UBR5 deficient of HECT domain, n = 3): necessary for ATRA-induced RARA reporter degradation
degradation of RARA reporter, I254 / I258 glutamate mutants (RARA reporter; I254 and I258 mutations, n = 3): significantly reduced ATRA-induced degradation
RARA LBD reporter degradation (RARA reporter; RARA LBD only, ATRA): still mediated ATRA-induced reporter degradation
degradation of RARA reporter, V240 glutamate mutant (RARA reporter; V240 single mutation, n = 3): abolished ATRA-induced degradation
degradation of PML-RARA-GFP reporter, cleft mutants (PML-RARA-GFP reporter): blocked ATRA-induced degradation of the PML-RARA-GFP reporter in cells
RARA-associated NCOA1 and UBR5 by IP-western ([3]; U937 RARA-GFP, 10 µM ATRA / MG132, 0-24 h): initial NCOA1 binding to RARA after 4 h of ATRA treatment, diminishing NCOA1 binding from 4 to 16 h, and increased binding of UBR5 at 16 and 24 h
RARA-associated UBR5 by IP/MS ([3]; with MG132, 0, 4, 16 h ATRA): enrichment of UBR5 peptides at 16 h post ATRA treatment
RARA ChIP-seq peaks [4]: lost following ATRA treatment
UBR5 ChIP-seq binding at RARA loci [4]: binding was strengthened following ATRA treatment
effect of UBR5 knockdown on ATRA-induced transcription [5]: strongly decreased transcriptional activation
DNA incorporation into UBR5-RARA/RXRA complex (UBR5-RARA/RXRA [6]): DNA was readily incorporated into a UBR5-RARA/RXRA complex
PML-RARA degradation (literature) (PML-RARA): PML-RARA is degraded therapeutically
